According to patent publication US6630312B2, “Method for identifying compounds for treatment of insulin resistance” (Joslin Diabetes Center, Inc., priority 1999, dated 2003):

Tests used:
IR β-subunit = test: Insulin-stimulated tyrosine phosphorylation of IR in 3T3-L1 adipocytes made 'insulin resistant'; assay type: cell-based; settings: for IR and IRS-1 protein levels: TNF-α and aspirin-treated cells
Description: (§1) Culture cells were used as follows to investigate the mechanisms relating to salicylate treatment to the in vivo reversal of insulin resistance. TNF-α treatment of 3T3-L1 adipocytes induced ‘insulin resistance’, as judged by significant decreases in insulin-stimulated tyrosine phosphorylation of IR β-subunit (42±11%) and IRS-1 (37±9%). TNF-α mediated ‘insulin resistance’ was reversed by pretreatment with high-dose (5 mM) aspirin. IR and IRS-1 phosphorylation levels were restored to 126±24% and 136±35%, respectively, compared to untreated controls; IR and IRS-1 protein levels were unchanged in TNF-α and aspirin-treated cells. TNF-α activates a cascade of adapters and kinases, including TRADD, RIP, TRAF2, and TAB1, which act upstream of JNK, p38 MAPK, and the IKK complex. Okadaic acid and calyculin A, two phosphatase inhibitors, also activate IKKβ (DiDonato et al. (1997) Nature 388:548; Harhaj & Sun (1997) J Biol Chem 272:5409), but without activating upstream elements in the TNF-α signaling cascade. Okadaic acid and calyculin A also induce ‘insulin resistance’ in isolated tissues and cultured cells (Robinson et al (1993) Am J Physiol 265:E36; Paz et al (1997) J. Biol Chem 272:29911). Therefore, it was determined whether aspirin would reverse ‘insulin resistance’ caused by these inhibitors. Marked reductions in insulin-stimulated IR (29±12%) and IRS-1 (16±2%) tyrosine-phosphorylation were prevented by incubating the cells with high-dose aspirin (109±15% and 93±25%, respectively).
(§2) Hyperglycemia- and hyperinsulinemia-induced insulin resistance in diabetic subjects can be mimicked in cell culture by incubation with high concentrations of glucose and insulin. Potential mechanisms include glucose-induced activation of PKC, which can activate IKK. […] Concurrent treatment with aspirin restored IR (107±23%) and IRS-1 (90±23%) tyrosine-phosphorylation to levels seen in cells incubated at 5.5 mM glucose. […] Protein levels were restored by concurrent treatment with aspirin. Serine phosphorylation of IκB leads to ubiquitination and proteosome-mediated degradation. IRS proteins may be degraded by a similar route and in both cases, downregulation was inhibited by aspirin.

IRS-1 [1] = test: Insulin-stimulated tyrosine phosphorylation of IRS-1 in 3T3-L1 adipocytes made 'insulin resistant'; assay type: cell-based
Description: as §1, §2

IRS-2 = test: Tyrosine phosphorylation of IRS-2 in Fao hepatoma cells, TNF-α induced 'insulin resistance'; assay type: cell-based; settings: for Tyrosine-phosphorylation of IRS-2: Fao hepatoma cells; for Reversal of TNF-α induced 'insulin resistance': doses known to have potent biological effects, cells not restated
IR = test: Insulin-stimulated IR activation in untransfected 293 cells; assay type: cell-based; settings: TNF-α treatment
Excerpt: (§3) However, TNF-α is a potential mediator of acquired insulin resistance (Lang et al. (1992) Endocrinology 130:43; Feinstein et al. (1993) J Biol Chem 268:26055; Hotamisligil et al. (1993) Science 259:87; Hotamisligil et al. (1994) J Clin Invest 94:1543). TNF-α activates the IKK complex. TNF-α treatment of untransfected 293 cells reduced insulin-stimulated IR activation to 29±2% of untreated controls. Expression of kinase deficient, dominant inhibitory IKKα(K44A) or IKKβ(K44A) reversed TNF-α-inhibited IR activation. In fact, dominant-inhibitory IKKβ caused a 60% increase in insulin-stimulated IR tyrosine-phosphorylation over controls, whether or not cells had been treated with TNF-α. […] There is in vivo support for this, as well.

AKT = AKT activation in 293 cells; assay type: cell-based; settings: TNF-α treatment
Excerpt: as §3

Zucker fa/fa rats = test: Effects of high-dose salicylates in Zucker fa/fa rats (GTT, ITT, serum lipids, ALT); settings: for Food intake, blood chemistry, or body weight: Zucker fa/fa rats
Excerpt: (§4) Ob/ob mice are leptin deficient.

[2] = 120 mg/kg/day continuous subcutaneous infusion
Excerpt: as §4

Insulin receptor (IR) = test: Insulin receptor tyrosine autophosphorylation in tissues from treated Zucker rats; assay type: in vivo, rat; settings: liver and muscle of treated Zucker rats vs untreated
Description: (§5) Tissues were isolated from treated animals and insulin signaling proteins were analyzed. […] A cascade consisting of insulin receptor (IR), insulin-receptor substrate (IRS) proteins, PI 3-kinase and 3-phosphoinositide-dependent protein kinase-1 (PDK1), is required for maintenance of metabolic homeostasis.

AKT kinase = test: Insulin-stimulated AKT phosphorylation in tissues from treated Zucker rats; assay type: in vivo, rat; settings: liver and muscle of treated Zucker rats vs untreated
Description: as §5

IRS-1 [3] = test: Electrophoretic mobility of IRS-1 from livers of treated animals; assay type: in vivo; settings: animal livers; suggests decrease in Ser/Thr phosphorylation
Excerpt: In cultured cells, IRS proteins are especially prone to phosphorylation on serine and threonine residues, which opposes the effect of tyrosine phosphorylation by inhibiting signaling.

ob/ob mice = settings: 120 mg/kg/day; for Food intake, blood chemistry, or body weight: ob/ob mice
Description: FIGS. 1A-H: In vivo effects of aspirin in Zucker fatty rats and ob/ob mice. (panels A-F) Twelve-week-old male Zucker rats (Harlan) and (panels G,H) eight-week-old ob/ob and ob/+ mice (Jackson Labs) were given free access to food and water. […] For glucose tolerance tests (GTT), glucose (2.0 g/kg) was administered by oral gavage (rats) or intraperitoneal injection (mice) after an overnight fast. (panels A,C) Blood glucose and (panels B,D) serum insulin levels were determined during oral glucose tolerance tests in (panels A,B) six Zucker fa/fa rats and (panels C,D) six fa/+ rats. For insulin tolerance tests (ITT) in (panel E) six Zucker fa/fa rats, insulin (2.0 U/kg) was injected intraperitoneally after an overnight fast. (panel F) Cholesterol (Chol), triglyceride (TG), long chain free fatty acid (FFA), and liver alanine aminotransferase (ALT) levels were measured in sera from fasting Zucker fa/fa rats. Glucose tolerance tests were conducted with (panel G) ten ob/ob mice and (panel H) ten ob/+ mice. Data are mean±SEM values; some SEM values are within the area of the symbols.
A determination of the effects of high-dose salicylates on obese rodents with severe insulin resistance was performed as follows. Twelve-week-old male Zucker fa/fa rats and eight-week-old male ob/ob mice were treated for 3-4 weeks with 120 mg/kg/day of aspirin or salicylate, administered by continuous subcutaneous infusion; this dose is roughly equivalent to 5-10 g/day in humans.

IKKβ [4] = biological target: T1, IKKβ (Homo sapiens, UniProt O14920); settings: Yin et al (1998); cited from earlier work
T1 sequence (O14920 1-756): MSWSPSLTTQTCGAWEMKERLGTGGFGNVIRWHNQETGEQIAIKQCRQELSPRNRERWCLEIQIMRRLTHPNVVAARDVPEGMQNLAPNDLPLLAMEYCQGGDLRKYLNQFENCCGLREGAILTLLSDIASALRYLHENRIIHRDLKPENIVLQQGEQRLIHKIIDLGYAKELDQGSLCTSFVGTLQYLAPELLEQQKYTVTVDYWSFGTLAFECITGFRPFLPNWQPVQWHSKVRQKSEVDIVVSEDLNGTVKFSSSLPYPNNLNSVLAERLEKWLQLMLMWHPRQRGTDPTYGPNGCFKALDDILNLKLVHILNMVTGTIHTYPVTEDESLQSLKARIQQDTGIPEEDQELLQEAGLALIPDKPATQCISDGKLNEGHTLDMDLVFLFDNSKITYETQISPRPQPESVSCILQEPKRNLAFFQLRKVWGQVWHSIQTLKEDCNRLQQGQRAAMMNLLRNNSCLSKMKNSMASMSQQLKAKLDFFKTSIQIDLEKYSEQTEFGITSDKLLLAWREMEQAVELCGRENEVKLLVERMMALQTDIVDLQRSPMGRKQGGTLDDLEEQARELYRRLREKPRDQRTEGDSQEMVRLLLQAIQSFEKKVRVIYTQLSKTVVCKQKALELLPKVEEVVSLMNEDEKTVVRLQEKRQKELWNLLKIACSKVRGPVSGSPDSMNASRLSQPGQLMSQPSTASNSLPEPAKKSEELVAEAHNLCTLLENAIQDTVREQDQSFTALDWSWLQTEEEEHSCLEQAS

Zucker fa/+ rats = test: Effects of high-dose aspirin in Zucker fa/+ rats (oral GTT); assay type: in vivo, rat; settings: 120 mg/kg/day
Excerpt: as §4

ob/+ mice = test: Effects of high-dose aspirin in ob/+ mice (GTT); assay type: in vivo, mouse; settings: aspirin treatment, 120 mg/kg/day; intraperitoneal GTT
Excerpt: as §4

IR, IRS-2 and AKT = test: Insulin-stimulated activation of IR, IRS-2 and AKT in HEK293 cells expressing IKKβ, IKKα or NIK; assay type: cell-based; settings: treatment with aspirin
Excerpt: To directly test the potential role of IKK, The IKKα and IKKβ catalytic subunits and NIK, an upstream activator, were expressed in HEK293 cells. Insulin stimulated the activation of IR, IRS-2 and AKT in these cells. Activation was attenuated by expression of IKKβ, IKKα or NIK. Attenuated activation was reversed by treatment with aspirin.

Sprague-Dawley rats = test: Insulin sensitivity in Sprague-Dawley rats on aspirin treatment; assay type: in vivo, rat; settings: rats not insulin resistant, obese, or diabetic
cyclooxygenases = settings: Furst (1994); cited from earlier work
IKKβ [5] = settings: without activating upstream elements in the TNF-α signaling cascade; cited from earlier work
[6] = tested on: isolated tissues and cultured cells; settings: cited from earlier work
[7] = 3T3-L1 adipocytes, TNF-α treatment alone
[8] = 3T3-L1 adipocytes overnight in 25 mM glucose and 10 nM insulin, concurrent aspirin, relative to cells at 5.5 mM glucose
[9] = 3T3-L1 adipocytes, TNF-α, pretreatment with 5 mM aspirin
[10] = phosphatase inhibitor-induced 'insulin resistance', cells incubated with high-dose aspirin

In the case of TNF-α, the “IR and IRS-1 protein levels” value (IR β-subunit; 3T3-L1 adipocytes) is reported as “unchanged”, the “Insulin-stimulated tyrosine phosphorylation of IR β-subunit” value (IR β-subunit; [7]) is reported as 42±11% and the “Insulin-stimulated tyrosine phosphorylation of IRS-1” value (IRS-1 [1]; [7]) is reported as 37±9%. The “Tyrosine-phosphorylation of IRS-2” value (IRS-2; TNF-α treatment alone) was 39±9%, the “Insulin-stimulated IR activation, of untreated controls” value (IR) was 29±2% and the AKT activation (AKT) was 18±15%.
In the case of O=C([O-])c1ccccc1O.[Na+] [salicylate, sodium salicylate], the “Food intake, blood chemistry, or body weight” value (from here on “Food intake, blood chemistry”) (Zucker fa/fa rats; 120 mg/kg/day) is reported as “Neither aspirin nor salicylate affected”, the “Serum salicylate levels, mean” value [2] is reported as 0.81 ± 0.25 mM and the “Serum salicylate levels, range” value [2] is reported as 0.3 to 1.3 mM. For the same compound, the “Insulin receptor (IR) tyrosine autophosphorylation” value (Insulin receptor (IR)) was “Significantly increased stimulation”, the “Insulin-stimulated AKT phosphorylation” value (AKT kinase) was “increased” and the “Electrophoretic mobility of IRS-1” value (IRS-1 [3]) was “increased”. The “Tyrosine-phosphorylation of IRS-2” value (IRS-2; TNF-α plus drug) was 89±8%, the “Food intake, blood chemistry” value (ob/ob mice) was “Neither aspirin nor salicylate affected” and the “Inhibition of IKKβ, relative potency” value (IKKβ [4]) was “equipotent inhibitors”.
With COc1ccc2cc([C@H](C)C(=O)O)ccc2c1 [naproxen] the “Reversal of TNF-α induced 'insulin resistance'” value (“Reversal” below) (IRS-2) was “Neither ibuprofen nor naproxen, two NSAID inhibitors of COX1 and COX2, reversed”.
With CC(=O)Oc1ccccc1C(=O)O [aspirin] the “Insulin levels during glucose tolerance test” value (Zucker fa/fa rats; 120 mg/kg/day continuous subcutaneous infusion, 3-4 weeks, oral GTT) was “Concomitant reductions”, the “Fasting blood glucose values and glucose tolerance” value (Zucker fa/fa rats; 120 mg/kg/day continuous subcutaneous infusion, 3-4 weeks, oral GTT, compared to untreated controls) was “improved” and the “Food intake, blood chemistry” value (Zucker fa/fa rats; 120 mg/kg/day) was “Neither aspirin nor salicylate affected”. The “Free fatty acid (FFA) levels” value (Zucker fa/fa rats; after the treatment period, aspirin 120 mg/kg/day) was 1.1 ± 0.2 mM, the Fasting triglyceride levels (Zucker fa/fa rats; after three weeks of aspirin treatment, 120 mg/kg/day) was 90 ± 58 mg/dL and the Cholesterol levels (Zucker fa/fa rats; fasting serum, aspirin 120 mg/kg/day) was “unaffected”. The “Blood glucose in insulin tolerance test” value (Zucker fa/fa rats; intraperitoneal insulin 2.0 U/kg after overnight fast, aspirin-treated animals) was “dramatic decreases”, the “Time to drop in FFA levels after aspirin initiation” value (Zucker fa/fa rats; preceding reductions in triglyceride and glucose levels) was at most 1 week and the “Serum levels of liver enzyme alanine aminotransferase (ALT) (hepatotoxicity)” value (Zucker fa/fa rats; throughout the studies) was “normal, low”. The “Insulin levels during glucose tolerance test” value (Zucker fa/+ rats; aspirin-treated group) was “Significantly lower”, the “Glucose levels during glucose tolerance test” value (Zucker fa/+ rats; following aspirin treatment) was “marginally reduced” and the Glucose intolerance (ob/+ mice) was “normalized”. For the same compound, the “Insulin receptor (IR) tyrosine autophosphorylation” value (Insulin receptor (IR)) was “Significantly increased stimulation”, the “Insulin-stimulated AKT phosphorylation” value (AKT kinase) was “increased” and the “Electrophoretic mobility of IRS-1” value (IRS-1 [3]) was “increased”. The “Insulin-stimulated IR tyrosine-phosphorylation” value (IR β-subunit; [8]) was 107±23%, the “IR and IRS-1 protein levels” value (IR β-subunit; 3T3-L1 adipocytes) was “unchanged” and the “IR phosphorylation level compared to untreated controls” value (IR β-subunit; [9]) was 126±24%. The “Protein levels of insulin signaling proteins downregulated by high glucose and insulin” value (IR β-subunit; 3T3-L1 adipocytes, concurrent treatment with aspirin) was “restored”, the “Insulin-stimulated IR tyrosine-phosphorylation” value (IR β-subunit; [10]) was 109±15% and the “Insulin-stimulated IRS-1 tyrosine-phosphorylation” value (IRS-1 [1]; [8]) was 90±23%. For the same compound, the “IRS-1 phosphorylation level compared to untreated controls” value (IRS-1 [1]; [9]) was 136±35%, the “Insulin-stimulated IRS-1 tyrosine-phosphorylation” value (IRS-1 [1]; [10]) was 93±25% and the “Reduced electrophoretic mobility of IRS-1 due to calyculin A-induced phosphorylation” value (IRS-1 [1]; with aspirin) was “reversed”. The “Tyrosine-phosphorylation of IRS-2” value (IRS-2; TNF-α plus drug) was 115±31%, the “Activation of IR, IRS-2 and AKT attenuated by expression of IKKβ, IKKα or NIK” value (IR, IRS-2 and AKT) was “reversed” and the Insulin sensitivity (Sprague-Dawley rats) was “increased insulin sensitivity”. For the same compound, the “Fasting blood glucose values and glucose tolerance” value (ob/ob mice; 3-4 weeks, intraperitoneal GTT, compared to untreated controls, every time point) was “significantly improved”, the “Food intake, blood chemistry” value (ob/ob mice) was “Neither aspirin nor salicylate affected” and the “Inhibition of IKKβ, relative potency” value (IKKβ [4]) was “equipotent inhibitors”. The “Potency towards the cyclooxygenases, aspirin relative to sodium salicylate” value (cyclooxygenases) was about 100 fold.
For C=C1[C@@H](O)[C@@H]2O[C@]3(CC[C@H](/C=C/[C@@H](C)[C@@H]4CC(C)=C[C@@]5(O[C@H](C[C@@](C)(O)C(=O)O)CC[C@H]5O)O4)O3)CC[C@H]2O[C@@H]1[C@@H](O)C[C@H](C)[C@H]1O[C@@]2(CCCCO2)CC[C@H]1C [Okadaic acid], the “Effect on IKKβ” value (IKKβ [5]) is listed as “activate” and the “'Insulin resistance' in isolated tissues and cultured cells” value [6] is listed as “induce”.
In the case of COC[C@@H]([C@H](O)[C@H](O)C(=O)NCC[C@H](C)c1nc(/C=C/C[C@@H]2O[C@]3(C[C@@H](O)[C@@H]2C)O[C@H]([C@H](C[C@H](O)[C@H](C)[C@H](O)[C@H](C)/C=C(C)/C(C)=C/C=C/C(C)=C\C#N)OC)[C@H](OP(=O)(O)O)C3(C)C)co1)N(C)C [calyculin A], the “Effect on IKKβ” value (IKKβ [5]) is given as “activate” and the “'Insulin resistance' in isolated tissues and cultured cells” value [6] is given as “induce”.
For CS(=O)(=O)Nc1ccc([N+](=O)[O-])cc1OC1CCCCC1 [NS-398], the “Reversal” value (IRS-2) was “no effect”.
With CC(C)Cc1ccc(C(C)C(=O)O)cc1 (centres unmarked) [ibuprofen] the “Reversal” value (IRS-2) was “Neither ibuprofen nor naproxen, two NSAID inhibitors of COX1 and COX2, reversed”.
